Here are results for three compounds from patent publication US8367659B2, “Oxazinyl isoflavonoid compounds, medicaments and use” (Marshall Edwards, Inc., priority 2007, dated 2013).

Data set [1] relates to ICAM-1. The data set is described as follows: TNFα-induced ICAM-1 expression in human arterial endothelial cells (ELISA). Format: cell-based. Here is the method: Inhibition of TNFα-stimulated endothelial cell activation by compounds was assessed by measuring surface expression of cell adhesion molecules with an ELISA method. Human arterial endothelial cells (HAEC) in growth medium (Cell Applications Inc.) were seeded into 96-well plates at a density of 10,000 cells per well. Plates were incubated overnight at 37° C. in a humidified incubator to allow for cells to become confluent. On the morning of the experiment, TNFα (10 μl, 2 ng/ml) was added to each well, which contained 100 μl of medium. Compounds were diluted in DMSO-containing medium (2.5% DMSO) to give a compound concentration of 100 and 300 μM. Compounds were added to wells so that final concentrations were 10 and 30 μM. DMSO-containing medium alone was added to zero concentration control wells. All samples were measured in quadruplicate (4 wells per treatment).
After incubation with compound, medium was removed and cells were probed with either non-specific IgG or specific mouse antibodies against E-selectin, ICAM or VCAM (BD Biosciences—0.1 μg in 100 μL buffered saline with 10% heat-inactivated human serum). Adhesion molecule expression was detected by addition of sheep anti-mouse antibody/horseradish peroxidase conjugate. […] Optical density was measured at 405 nm with an ELISA reader (Titertek Multiscan, Flow Laboratories). […]

Data set [2] deals with AA-induced ear oedema. The data set is described as follows: Arachidonic acid (AA)-induced ear swelling in mice. The format is in vivo, BALB/c mice. The following applies: 25 mg/kg i/p; 1 h post-AA application. As to the method: Groups of 5-6 female BALB/c mice (ARC, WA, Australia), weighing 15-21 g were injected intraperitoneally (i/p) with test compound at 25 mg/kg delivered in polyethylene glycol (PEG) 400: phosphate buffered saline (PBS) 1:1 or ethanol: propanediol: PBS 4:9:7 either 30 min prior to or immediately before the inflammogen was applied to the ears. Mice were anaesthetised using isoflurane and baseline thickness of both ears was measured using a spring micrometer. Each mouse received a total of 20 μL of either AA in ethanol (50 mg/ml or 200 mg/ml) or PMA in either ethanol or acetone (0.2 mg/ml) applied to the inner and outer surfaces of each pinna (i.e. 0.5 mg or 2 mg AA or 2 μg PMA per ear). Mice were anaesthetised again to re-measure the ears at 1 h post-AA application and 5 h after PMA. The difference in ear swelling pre- and post-application of inflammogen for each ear was calculated, and the average for the two ears of each mouse taken. The difference in mean swelling of each test group compared to the group given vehicle alone was calculated using a general ANOVA using Dunnett's Multiple Comparison test when multiple compounds were tested in the one experiment or a two-tailed […] t-test when only one compound was tested (Prism 4, Graphpad Software). The data has been presented graphically as the mean percentage inhibition of oedema, calculated as: […]. Results

Data set [3] deals with THP-1 cells. The data set is described as follows: Cell viability of THP-1 cells in the NFκB assay. Format: cell-based, human. The following applies: 50 μM and 100 μM. As to the method: In brief, genetically modified THP-1 cells were seeded into wells of a 96-well plate (50×10^3 cells/well) in the presence of RPMI 1640 medium (70 μl). TNFα was added to each well (10 μl) to give a final concentration of 7.5 ng/ml. Dialyzed bovine serum was added (10 μl). Compounds dissolved in DMSO (10 μL) were then added (5 wells for each compound). Each plate contained a no-cell control (4 wells), a no-serum control (4 wells) and two serum controls. Plates were incubated for 5 h at 37° C. to allow for NFκB-stimulated beta-lactamase production. LiveBLAzer™ FRET B/G Substrate (CCF4-AM) substrate was then added to assay. CCF4-AM is a Forster resonance energy transfer (FRET) based substrate for beta-lactamase developed by Invitrogen Corp. Once CCFA-AM enters a cell, it is converted to negatively charged CCF4 by endogenous esterases. Excitation of this substrate at 409 nm leads to efficient FRET between the coumarin and fluorescein moieties, resulting in a green fluorescence detectable at 530 nm. The presence of beta-lactamase leads to cleavage of CCF4 and results in a loss of FRET, resulting in a robust blue fluorescent signal detectable at 460 nm. Thus, activity of beta-lactamase (a marker of NFκB-promoter activity) is measured as a product to substrate ratio (blue/green fluorescence ratio: 460 nm/530 nm). […]

Data set [4] relates to HT29. As to the kind of experiment: Anti-cancer activity, HT-29 colon adenocarcinoma cells (MTT). The format is cell-based. As to conditions: Homo sapiens, HT-29, 120 h, 5 days, read-out: IC50 μM, HT29 Colorectal.

In the case of `Oc1ccc(C2=Cc3cc4c(cc3OC2)OCN(Cc2ccccc2)C4)cc1` [Compound 1, 4-(3-Benzyl-2,3,4,8-tetrahydrochromeno[6,7-e][1,3]oxazin-7-yl)phenol], the “inhibition of ICAM expression” value in data set [1] (TNFα-stimulated HAEC, 4 hrs, FIG. 18) is reported as 10-50%. Further, in data set [2], the “% Change compared with vehicle” value is −18% and the “Change in ear thickness (mean ± SD, × 0.01 mm)” value is listed as 20 ± 0.9 × 0.01 mm. Further, the “cell viability” value in data set [3] is recorded as “reduced cell viability”. Besides, the IC50 in data set [4] was found to be 20.6 ± 2.1 µM.
Regarding `Oc1cccc(C2=Cc3ccc(O)cc3OC2)c1` [Compound 37-DHE, 3′,7-dihydroxy-isoflav-3-ene, reference compound], the “effect on TNFα-induced ICAM-1 expression” value in data set [1] (HAEC, 10 μM found most appropriate for comparing) is given as “less pronounced”.
Turning to `CC(c1ccccc1)N1COc2cc3c(cc2C1)C=C(c1ccc(O)cc1)CO3` (stereo not shown) [Compound 2, 4-(3-(1-Phenylethyl)-2,3,4,8-tetrahydrochromeno[6,7-e][1,3]oxazin-7-yl)phenol], in data set [2], the “% Change compared with vehicle” value is listed as −39% and the “Change in ear thickness (mean ± SD, × 0.01 mm)” value is reported as 15.9 ± 4.2 × 0.01 mm. The “cell viability” value in data set [3] is “reduced cell viability”. The IC50 in data set [4] came to 11.8 ± 0.7 µM.
